Data: US8178658B2 (Dow AgroSciences, LLC, priority 2008, dated 2012)

Columns and labels:
[1] = tested on: beet armyworm (BAW; Spodoptera exigua: Lepidoptera); test: 96-well microtiter plate-based high throughput (HTS) diet bioassay on beet armyworm (BAW HTS); type: in vivo; settings: BAW eggs, 12 μg test compound per well, mortality at 6 d post-treatment, mortality class
Description: (§1) Bioassays on beet armyworm (BAW; Spodoptera exigua: Lepidoptera) were conducted using either a 96-well microtiter plate-based high throughput (HTS) bioassay or a 128-well diet tray assay. The HTS assay is a based on a modification of Lewer et al. J. Nat. Prod. 2006, 69, 1506. BAW eggs of were placed on top of artificial diet (100 μl) in each well of 96-well microtiter plate. The diet was pretreated with test compounds (12 μg dissolved in 30 μL of DMSO-acetone-water mixture) layered on top of the diet using a liquid handling system and then allowed to dry for several hours. Infested plates were then covered with a layer of sterile cotton batting and the plate lid, and then held in the dark at 29° C. Mortality was recoded at 6 d post-treatment. Each plate had six replicates. The percent mortality was calculated from the average of the six replicates. In the case of the 128-well diet assay, three to five second instar BAW larvae were placed in each well (3 mL) of the diet tray that had been previously filled with 1 mL of artificial diet to which 50 μg/cm^2 of the test compound (dissolved in 50 μL of 90:10 acetone-water mixture) had been applied (to each of eight wells) and then allowed to dry. Trays were covered with a clear self-adhesive cover, and held at 25° C., 14:10 light-dark for six days. Percent mortality was recorded for the larvae in each well; activity in the eight wells was then averaged. In Table 7, under the BAW HTS or BAW 50 heading, an “A” means that the compound was tested and at least 50 percent mortality was observed whereas, “B” means that either (1) the compound was tested and less than 50 percent mortality was observed or (2) the compound was not tested.

[2] = tested on: beet armyworm (BAW; Spodoptera exigua: Lepidoptera); test: 128-well diet tray assay on beet armyworm (BAW 50); type: in vivo; settings: 128-well diet tray assay; 50 μg/cm^2 of test compound on diet; second instar BAW larvae; mortality class
Description: as §1

[3] = 96-well microtiter plate HTS diet assay

| SMILES | BAW HTS ([1]; 96-well HTS diet bioassay) | BAW HTS [1, 3] | BAW 50 ug/cm2 [2] |
| --- | --- | --- | --- |
| COc1ccc(C=NOC2OC(C)C(OC)C(OC)C2OC)cc1-c1cn(-c2ccc(OC(F)(F)F)cc2)cn1 (stereo not drawn) [Compound 35] | B (either (1) the compound was tested and less than 50 percent mortality was observed or (2) the compound was not tested) | B (either (1) the compound was tested and less than 50 percent mortality was observed or (2) the compound was not tested) | A (the compound was tested and at least 50 percent mortality was observed) |
| COC1C(C)OC(ON=Cc2ccc(-c3cn(-c4ccc(OC(F)(F)F)cc4)cn3)cc2F)C(OC)C1OC (stereo not drawn) [Compound 36] | B (either (1) the compound was tested and less than 50 percent mortality was observed or (2) the compound was not tested) | B (either (1) the compound was tested and less than 50 percent mortality was observed or (2) the compound was not tested) | A (the compound was tested and at least 50 percent mortality was observed) |
| COC1C(C)OC(ON=Cc2ccc(-c3cn(-c4ccc(OCC(F)(F)F)cc4)cn3)cc2)C(OC)C1OC (stereo not drawn) [Compound 37] | B (either (1) the compound was tested and less than 50 percent mortality was observed or (2) the compound was not tested) | B (either (1) the compound was tested and less than 50 percent mortality was observed or (2) the compound was not tested) | A (the compound was tested and at least 50 percent mortality was observed) |
| COC1C(C)OC(ON=Cc2ccc(-c3cn(-c4nc(F)c(F)c(F)c4F)cn3)cc2)C(OC)C1OC (stereo not drawn) [Compound 38] | B (either (1) the compound was tested and less than 50 percent mortality was observed or (2) the compound was not tested) | B (either (1) the compound was tested and less than 50 percent mortality was observed or (2) the compound was not tested) | A (the compound was tested and at least 50 percent mortality was observed) |
| COC1C(C)OC(ON=Cc2ccc(-c3cn(-c4ccc(I)cn4)cn3)cc2)C(OC)C1OC (stereo not drawn) [Compound 39] | B (either (1) the compound was tested and less than 50 percent mortality was observed or (2) the compound was not tested) | B (either (1) the compound was tested and less than 50 percent mortality was observed or (2) the compound was not tested) | A (the compound was tested and at least 50 percent mortality was observed) |
| COc1ccc(C=NOC2OC(C)C(OC)C(OC)C2OC)cc1-c1cn(-c2ccc(C(F)(F)F)cc2)cn1 (stereo not drawn) [Compound 40] | B (either (1) the compound was tested and less than 50 percent mortality was observed or (2) the compound was not tested) | B (either (1) the compound was tested and less than 50 percent mortality was observed or (2) the compound was not tested) | A (the compound was tested and at least 50 percent mortality was observed) |
| COC1C(C)OC(ON=Cc2ccc(-c3cn(-c4ccc(C)cc4)cn3)cc2)C(OC)C1OC (stereo not drawn) [Compound 41] | B (either (1) the compound was tested and less than 50 percent mortality was observed or (2) the compound was not tested) | B (either (1) the compound was tested and less than 50 percent mortality was observed or (2) the compound was not tested) | A (the compound was tested and at least 50 percent mortality was observed) |
| COC1C(C)OC(ON=Cc2ccc(-c3cn(-c4ccc(C(F)(F)F)cc4)cn3)cc2)C(OC)C1OC (stereo not drawn) [Compound 42] | B (either (1) the compound was tested and less than 50 percent mortality was observed or (2) the compound was not tested) | B (either (1) the compound was tested and less than 50 percent mortality was observed or (2) the compound was not tested) | A (the compound was tested and at least 50 percent mortality was observed) |
